These results are taken from patent US10865191B2, “Heterocyclic compounds useful as modulators of TNF alpha” (BRISTOL-MYERS SQUIBB COMPANY, priority 2015, dated 2020).

Chain of TNFα (P01375 77-233 limits assumed): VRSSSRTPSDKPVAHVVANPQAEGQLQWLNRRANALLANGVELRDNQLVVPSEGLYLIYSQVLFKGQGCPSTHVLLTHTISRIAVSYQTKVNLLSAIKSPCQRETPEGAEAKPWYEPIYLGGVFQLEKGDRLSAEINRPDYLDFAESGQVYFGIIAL

The first assay addresses TNFα (Homo sapiens, UniProt P01375). Put plainly: TNF induced HEK-Blue assay (NF-kB-driven secreted alkaline phosphatase reporter). The assay is classed as cell-based. The note with it: TNF induced HEK-Blue assay IC50 value, TNFα 0.5 ng/mL, HEK-Blue-CD40L cells, 18 h. The method, then: TNF or CD40L-Induced HEK-Blue Assay
Test compounds serially diluted in DMSO were plated in an assay plate (LABCYTE, Cat. # LP-0200) at final concentrations ranging from 0.004 μM to 25 μM. TNFα (final concentration 0.5 ng/mL) or CD40L (final concentration 30 ng/mL) in assay buffer [DMEM, 4.5 g/l glucose (Gibco, Cat. 21063-029), 10% FBS (Sigma, F4135), 1% Penicillin-Streptomycin (Gibco, Cat. 15140-122), 1% Anti-Anti (Gibco, Cat. 15240-112) and 2 mM L-glutamine (Gibco, Cat. 25030-081)] was then added to the assay plate. After a 30 minute pre-incubation at 37° C. and 5% CO2, HEK-Blue™-CD40L cells (INVIVOGEN, Cat. Code hkb-cd40) containing a NF-kB-driven secreted alkaline phosphatase reporter gene were seeded into the assay plate at a density of 20,000 cells per well. This plate was then incubated for 18 h at 37° C. and 5% CO2. Secreted alkaline phosphatase expression was measured using QUANTI-Blue™ (INVIVOGEN, Cat. Code rep-qb1) according to manufacturer's specifications and the assay plate was read on a PerkinElmer Envision at 620 nm.
Inhibition data for the test compound over a range of concentrations was plotted as percentage inhibition of the test compound (100%=maximum inhibition). IC50 values were determined after correcting for background [(sample read-mean of low control)/(mean of high control-mean of low control)] where by the low control is DMSO without stimulation and high control is DMSO with stimulation. The IC50 is defined as the concentration of test compound which produces 50% inhibition and was quantified using the 4 parameter logistic equation to fit the data.
As for `CC(Nc1c(Cl)cnc2cc(F)c(-c3cnc(C(C)(C)O)nc3)cc12)c1ccccc1F` (centres unmarked) [Example 248, 2-(5-(3-chloro-7-fluoro-4-((1-(2-fluorophenyl)ethyl)amino)quinolin-6-yl)pyrimidin-2-yl)propan-2-ol], the IC50 (usually the concentration that inhibits the measured activity by half) was 10000 to 25000 nM.
On the same count and under the same terms, the figure for `CC(Nc1c(Cl)cnc2ccc(-c3cnc(C(C)(C)O)nc3)cc12)c1ccccc1C(F)(F)F` (racemic) [Example 151, 2-(5-(3-chloro-4-((1-(2-(trifluoromethyl)phenyl)ethyl)amino)quinolin-6-yl)pyrimidin-2-yl)propan-2-ol] is below 1000 nM.

The same assay, now with this note: TNFα 0.5 ng/mL, HEK-Blue-CD40L cells, 18 h; read-out: TNF induced HEK-Blue assay IC50 value.
On to `CC(C)CC(C)Nc1c(Cl)cnc2ccc(-c3cnc(C(C)(C)O)nc3)cc12` (racemic) [Example 135, 2-(5-(3-chloro-4-((4-methylpentan-2-yl)amino)quinolin-6-yl)pyrimidin-2-yl)propan-2-ol], for which the IC50 is below 1000 nM.
With `Cc1ccc(C)c(Nc2c(Cl)c(N)nc3ccc(-c4cnc(NCC(C)(C)O)nc4)cc23)c1` [Example 69, 1-((5-(2-amino-3-chloro-4-((2,5-dimethylphenyl)amino)quinolin-6-yl)pyrimidin-2-yl)amino)-2-methylpropan-2-ol], the half-inhibitory concentration (IC50) was below 1000 nM.
The same measure, in the same setting: to `CC(Nc1c(Cl)cnc2ccc(-c3ccc(C(C)(C)O)cc3)cc12)c1cscn1` (racemic) [Example 202, 2-(4-(3-chloro-4-((1-(thiazol-4-yl)ethyl)amino)quinolin-6-yl)phenyl)propan-2-ol] belongs below 1000 nM; to `Cc1ccncc1-c1ccc(F)c([C@@H](C)Nc2c(Cl)cnc3ccccc23)c1` [Example 529, (R)-3-chloro-N-(1-(2-fluoro-5-(4-methylpyridin-3-yl)phenyl)ethyl)quinolin-4-amine], below 1000 nM; to `Cc1nc2ccc(-c3cnc(C(C)(C)O)nc3)cc2c(N[C@H](C)c2cc(-c3nnn[nH]3)ccc2F)c1Cl` [Example 412, (R)-2-(5-(3-chloro-4-((1-(2-fluoro-5-(1H-tetrazol-5-yl)phenyl)ethyl)amino)-2-methylquinolin-6-yl)pyrimidin-2-yl)propan-2-ol], 10000 to 25000 nM.
As to `COc1ccc(F)c(CNc2c(Cl)cnc3ccccc23)c1` [Example 517, 3-chloro-N-(2-fluoro-5-methoxybenzyl)quinolin-4-amine], the IC50 lay in the range of 1000 to 10000 nM.
Consider `C[C@@H](Nc1c(Cl)c(C(=O)Nc2cccnc2)nc2ccc(-c3cnc(C(C)(C)O)nc3)cc12)c1cc(C#N)ccc1F` [Example 385, (R)-3-chloro-4-((1-(5-cyano-2-fluorophenyl)ethyl)amino)-6-(2-(2-hydroxypropan-2-yl)pyrimidin-5-yl)-N-(pyridin-3-yl)quinoline-2-carboxamide], for which the IC50 lay within 1000 to 10000 nM.
The same measure, in the same setting: the figure for `C=Cc1ccc(F)c([C@H](Nc2c(Cl)c(C)nc3ccc(-c4cnc(C(C)(C)O)nc4)cc23)C(F)F)c1` [Example 352, (S)-2-(5-(3-chloro-4-((2,2-difluoro-1-(2-fluoro-5-vinylphenyl)ethyl)amino)-2-methylquinolin-6-yl)pyrimidin-2-yl)propan-2-ol] is below 1000 nM; for `CC(Nc1c(Cl)cnc2cc(F)c(-c3ccc(C(C)(C)O)c(F)c3)cc12)c1ccccc1F` (centres unmarked) [Example 258, 2-(4-(3-chloro-7-fluoro-4-((1-(2-fluorophenyl)ethyl)amino)quinolin-6-yl)-2-fluorophenyl)propan-2-ol] it is 1000 to 10000 nM; for `CC(Nc1c(Cl)cnc2cc(F)c(-c3cnc(C(C)(C)O)nc3)nc12)c1cccc(N)c1` (racemic) [Example 239, 2-(5-(8-((1-(3-aminophenyl)ethyl)amino)-7-chloro-3-fluoro-1,5-naphthyridin-2-yl)pyrimidin-2-yl)propan-2-ol] it is below 1000 nM.
As for `Cc1ccc(C)c(Nc2c(Cl)c(CN=[N+]=[N-])nc3ccc(-c4ccc(C#N)nc4)cc23)c1` [Example 42, 5-(2-(azidomethyl)-3-chloro-4-((2,5-dimethylphenyl)amino)quinolin-6-yl)picolinonitrile], the IC50 fell in the range of 1000 to 10000 nM.
Still for that read-out and setting: to `COc1ccncc1-c1ccc(F)c([C@@H](C)Nc2c(Cl)cnc3ccccc23)c1` [Example 548, (R)-3-chloro-N-(1-(2-fluoro-5-(4-methoxypyridin-3-yl)phenyl)ethyl) quinolin-4-amine] belongs below 1000 nM; to `COc1cc(-c2ccc(F)c([C@@H](C)Nc3c(Cl)cnc4ccccc34)c2)c(F)cn1` [Example 527, (R)-3-chloro-N-(1-(2-fluoro-5-(5-fluoro-2-methoxypyridin-4-yl)phenyl)ethyl)quinolin-4-amine], 1000 to 10000 nM.
On the same count and under the same terms, to `Cc1ccc(-c2ccc(F)c([C@@H](C)Nc3c(Cl)cnc4ccccc34)c2)cn1` [Example 518, (R)-3-chloro-N-(1-(2-fluoro-5-(6-methylpyridin-3-yl)phenyl)ethyl)quinolin-4-amine] belongs below 1000 nM.
Still for that read-out and setting: the figure for `C[C@@H](Nc1c(Cl)cnc2ccc(-c3cnc(C4(O)CCC(=O)CC4)nc3)cc12)c1ccccc1F` [Example 114, (R)-4-(5-(3-chloro-4-((1-(2-fluorophenyl)ethyl)amino)quinolin-6-yl)pyrimidin-2-yl)-4-hydroxycyclohexanone] is below 1000 nM.
`Cc1ccc(C)c(Nc2c(Cl)c(N)nc3ccc(-c4cnc(N5CCNC(=O)C5)nc4)cc23)c1` [Example 72, 4-(5-(2-amino-3-chloro-4-((2,5-dimethylphenyl)amino)quinolin-6-yl)pyrimidin-2-yl)piperazin-2-one]: the IC50 was below 1000 nM.
For the compound `CC(C)(O)c1ncc(-c2ccc3ncc(Cl)c(NC(CCO)c4ccccc4F)c3c2)cn1` (racemic) [Example 167, 3-((3-chloro-6-(2-(2-hydroxypropan-2-yl)pyrimidin-5-yl)quinolin-4-yl)amino)-3-(2-fluorophenyl)propan-1-ol], the concentration for half-maximal inhibition (IC50) is below 1000 nM.
Same read-out and setting: the figure for `CC(Nc1c(Cl)cnc2cc(F)c(-c3cnc(C(O)CO)nc3)cc12)c1ccccc1F` (racemic) [Example 300, 1-(5-(3-chloro-7-fluoro-4-((1-(2-fluorophenyl)ethyl)amino)quinolin-6-yl)pyrimidin-2-yl)ethane-1,2-diol] is below 1000 nM; for `Cc1ccc(F)c(C(C)Nc2c(Cl)cnc3ccc(-c4cnc(N5CCNC(=O)C5)nc4)cc23)n1` (centres unmarked) [Example 484, 4-(5-(3-chloro-4-((1-(3-fluoro-6-methylpyridin-2-yl)ethyl)amino)quinolin-6-yl)pyrimidin-2-yl)piperazin-2-one] it is below 1000 nM; for `Cc1nc2ccc(-c3cnc(C(C)(C)O)nc3)cc2c(N[C@H](C)c2cc(C#N)ccc2F)c1C` [Example 314, (R)-4-fluoro-3-(1-((6-(2-(2-hydroxypropan-2-yl)pyrimidin-5-yl)-2,3-dimethylquinolin-4-yl)amino)ethyl)benzonitrile] it is below 1000 nM.
`CCCCCC(C)Nc1c(Cl)cnc2ccc(-c3cnc(C(C)(C)O)nc3)cc12` (racemic) [Example 139, 2-(5-(3-chloro-4-(heptan-2-ylamino)quinolin-6-yl)pyrimidin-2-yl) propan-2-ol]: the IC50 was below 1000 nM.
The same measure, in the same setting: the figure for `C[C@@H](Nc1c(Cl)cnc2ccccc12)c1cc(-c2cncnc2)ccc1F` [Example 479, (R)-3-chloro-N-(1-(2-fluoro-5-(pyrimidin-5-yl)phenyl)ethyl)quinolin-4-amine] is below 1000 nM; for `CC(Nc1c(Cl)cnc2ccc(-c3cnc(C(C)(C)O)nc3)cc12)C1(c2ccc(Cl)cc2)CCCC1` (racemic) [Example 142, 2-(5-(3-chloro-4-((1-(1-(4-chlorophenyl)cyclopentyl)ethyl)amino)quinolin-6-yl)pyrimidin-2-yl)propan-2-ol] it is 10000 to 25000 nM; for `C[C@@H](Nc1c(Cl)cnc2ccc(-c3cnc(C(C)(C)O)nc3)cc12)c1cc(O)ccc1F` [Example 405, (R)-3-(1-((3-chloro-6-(2-(2-hydroxypropan-2-yl)pyrimidin-5-yl)quinolin-4-yl)amino)ethyl)-4-fluorophenol] it is below 1000 nM.
Same read-out and setting: to `Cc1ccc(C)c(Nc2c(Cl)c(C(=O)N(C)C)nc3ccc(-c4ccc(C#N)nc4)cc23)c1` [Example 34, 3-chloro-6-(6-cyanopyridin-3-yl)-4-((2,5-dimethylphenyl)amino)-N,N-dimethylquinoline-2-carboxamide] belongs 1000 to 10000 nM; to `Cc1nc2ccc(-c3cnc(C(C)(C)O)nc3)cc2c(N[C@H](C)c2cc(-c3ccccc3)ccc2F)c1Cl` [Example 331, (R)-2-(5-(3-chloro-4-((1-(4-fluoro-[1,1′-biphenyl]—3-yl)ethyl)amino)-2-methylquinolin-6-yl)pyrimidin-2-yl)propan-2-ol], below 1000 nM.
Turning to `CC(Nc1c(Cl)cnc2ccc(-c3cnc(C(C)(C)O)nc3)cc12)[C@@H]1CCCN(C(=O)OC(C)(C)C)C1` (mixture of isomers) [Example 61, tert-butyl (R)-3-((R)-1-((3-chloro-6-(2-(2-hydroxypropan-2-yl)pyrimidin-5-yl)quinolin-4-yl)amino)ethyl)piperidine-1-carboxylate], the half-maximal inhibitory concentration (IC50) fell in the range of 1000 to 10000 nM.
